Source: the supplement of paper PMC11208160

Assay: recombinant barcode read abundance after kanamycin selection (control-corrected) (log10(CPM+1)); higher = more efficient recombination; sequences stand for … in AGTGCAGAGAAAATCGGCCAGTTTTCTCTGCCTGCAGTCCGCATGCCGT…AGATTTATGCAGCGGACTGCCTTTCTCCCAAAGTGATAAACCGGACAGTATCATGGACCGGTTTTCCCGGTAATCCGTATTTGCAAGGTTGGTTTCACT; site = the 11-nt target
How it was run: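 Pooled oligos, each joining a target to an IS621 bridge RNA target-binding loop, were cloned and co-electroporated with a donor plasmid into E. coli. Selective plates carried chloramphenicol/ampicillin/kanamycin and 0.1 mM IPTG, while chloramphenicol/ampicillin LB agar served as control, with two replicates of each. Recombination efficiency rests on averaged, control-corrected counts per million of barcodes at recombinant junctions, shown as log10(CPM+1).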
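Further: IS621 recombinase and bridge RNA in Escherichia coli cells.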

Sequence	recombinant barcode read abundance (log10)
CTAGTGACTTGGGTTCTAACCTGTTGCGG (site CTAGTGACTAC)	0.0948
CTAGTGACTTGGGTTCTAACCTGTTGCGG (site CTAGTGACTCC)	1.74
CTAGTGACTTGGGTTCTAACCTGTTGCGG (site CTAGTGACTGC)	0.141
CTAGTGACTTGGGTTCTAACCTGTTGCGG (site CTAGTGACTTC)	0.352
CTAGTGTCTTGGGTTCTAACCTGTTGCAC (site CTAGTCACTGT)	0.198
CTAGTGTCTTGGGTTCTAACCTGTTGCAC (site CTAGTGTCTGT)	1.88
CTAGTGTCTTGGGTTCTAACCTGTTGCTA (site CTAGTGTCTTA)	2.72
CTAGTGTCTTGGGTTCTAACCTGTTGCTA (site GTAGTGTCTTA)	0.0109
CTATAGGCTTGGGTTCTAACCTGTTGCCT (site ATATACGCTAG)	0.0845
CTATAGGCTTGGGTTCTAACCTGTTGCCT (site CTATAGGCTAG)	0.159
CTATATACTTGGGTTCTAACCTGTTGCCA (site CTATATACTTG)	0.154
CTATATACTTGGGTTCTAACCTGTTGCCA (site CTGTATACTTG)	0
CTATATACTTGGGTTCTAACCTGTTGCTT (site CTAAATACTAA)	0.088
CTATATACTTGGGTTCTAACCTGTTGCTT (site CTATATACTAA)	0.804
CTATGAACTTGGGTTCTAACCTGTTGCCA (site CTATGAACTTG)	0.283
CTATGAACTTGGGTTCTAACCTGTTGCCA (site GACATTCCTAA)	0.0769
CTATGACCTTGGGTTCTAACCTGTTGCAT (site CTATGACCTAA)	0.0613
CTATGACCTTGGGTTCTAACCTGTTGCAT (site CTATGACCTAC)	0.139
CTATGACCTTGGGTTCTAACCTGTTGCAT (site CTATGACCTAG)	0.19
CTATGACCTTGGGTTCTAACCTGTTGCAT (site CTATGACCTAT)	0.568
CTATGACCTTGGGTTCTAACCTGTTGCGT (site CTATGACCTAA)	0.191
CTATGACCTTGGGTTCTAACCTGTTGCGT (site CTATGACCTAC)	2.11

Sequence	recombinant barcode read abundance (log10)
CTATGACCTTGGGTTCTAACCTGTTGCGT (site CTATGACCTAG)	0.211
CTATGACCTTGGGTTCTAACCTGTTGCGT (site CTATGACCTAT)	1.26
CTATGACCTTGGGTTCTAACCTGTTGCTT (site CTATGACCTAA)	1.4
CTATGACCTTGGGTTCTAACCTGTTGCTT (site CTATGACCTAC)	0.0411
CTATGACCTTGGGTTCTAACCTGTTGCTT (site CTATGACCTAG)	1.26
CTATGACCTTGGGTTCTAACCTGTTGCTT (site CTATGACCTAT)	0.394
CTATGGACTTGGGTTCTAACCTGTTGCAA (site CTATGGACTAT)	0.0174
CTATGGACTTGGGTTCTAACCTGTTGCAA (site CTATGGACTCT)	0.23
CTATGGACTTGGGTTCTAACCTGTTGCAA (site CTATGGACTGT)	0.274
CTATGGACTTGGGTTCTAACCTGTTGCAA (site CTATGGACTTT)	1.39
CTATGGACTTGGGTTCTAACCTGTTGCAT (site CTATGGACTAT)	0.348
CTATGGACTTGGGTTCTAACCTGTTGCAT (site CTATGGACTCT)	0.614
CTATGGACTTGGGTTCTAACCTGTTGCAT (site CTATGGACTGT)	0.217
CTATGGACTTGGGTTCTAACCTGTTGCAT (site CTATGGACTTT)	0.0336
CTATGTCCTTGGGTTCTAACCTGTTGCGT (site CTATGTCCTAC)	1.44
CTATGTCCTTGGGTTCTAACCTGTTGCGT (site GGATGTCCTAC)	0.228
CTATGTGCTTGGGTTCTAACCTGTTGCAT (site CTATGTGCTAA)	0.295
CTATGTGCTTGGGTTCTAACCTGTTGCAT (site CTATGTGCTAC)	0.168
CTATGTGCTTGGGTTCTAACCTGTTGCAT (site CTATGTGCTAG)	0.0201
CTATGTGCTTGGGTTCTAACCTGTTGCAT (site CTATGTGCTAT)	0.109
CTATTCACTTGGGTTCTAACCTGTTGCCT (site CTATTCACTAG)	1.34
CTATTCACTTGGGTTCTAACCTGTTGCCT (site CTATTCCCTAG)	0.0733

Sequence	recombinant barcode read abundance (log10)
CTATTCACTTGGGTTCTAACCTGTTGCCT (site CTATTCGCTAG)	0.0529
CTATTCACTTGGGTTCTAACCTGTTGCCT (site CTATTCTCTAG)	0.091
CTATTCTCTTGGGTTCTAACCTGTTGCTA (site CTATACTCTTG)	0.115
CTATTCTCTTGGGTTCTAACCTGTTGCTA (site CTATTCTCTTA)	1.62
CTATTGTCTTGGGTTCTAACCTGTTGCGT (site CTATTGTCTAC)	2.78
CTATTGTCTTGGGTTCTAACCTGTTGCGT (site CTATTGTCTCC)	0.019
CTATTGTCTTGGGTTCTAACCTGTTGCGT (site CTATTGTCTGC)	0.475
CTATTGTCTTGGGTTCTAACCTGTTGCGT (site CTATTGTCTTC)	0.0685
CTATTTACTTGGGTTCTAACCTGTTGCGG (site CTATTTACTCC)	0.781
CTATTTACTTGGGTTCTAACCTGTTGCGG (site TGTCGGCCTAA)	0.0533
CTATTTCCTTGGGTTCTAACCTGTTGCCT (site CGGTTTCCTAG)	0.032
CTATTTCCTTGGGTTCTAACCTGTTGCCT (site CTATTTCCTAG)	0.284
CTCAAACCTTGGGTTCTAACCTGTTGCTT (site CTCAAACCTAA)	0.355
CTCAAACCTTGGGTTCTAACCTGTTGCTT (site CTCACACCTAA)	0.15
CTCAAGACTTGGGTTCTAACCTGTTGCGG (site CTCAAGACTCC)	2.5
CTCAAGACTTGGGTTCTAACCTGTTGCGG (site CTCTAGACTCA)	0.219
CTCACACCTTGGGTTCTAACCTGTTGCAG (site CTCACACCTCT)	0.968
CTCACACCTTGGGTTCTAACCTGTTGCAG (site TGTCATGCTAC)	0.331
CTCACGCCTTGGGTTCTAACCTGTTGCTT (site CACACGCCTAG)	0.228
CTCACGCCTTGGGTTCTAACCTGTTGCTT (site CTCACGCCTAA)	0.237
CTCAGGTCTTGGGTTCTAACCTGTTGCCA (site CTCAGGTCTAG)	0.18
CTCAGGTCTTGGGTTCTAACCTGTTGCCA (site CTCAGGTCTTG)	0.193

Sequence	recombinant barcode read abundance (log10)
CTCATTCCTTGGGTTCTAACCTGTTGCAT (site CTCATTCCTAA)	0.0718
CTCATTCCTTGGGTTCTAACCTGTTGCAT (site CTCATTCCTAC)	0.0351
CTCATTCCTTGGGTTCTAACCTGTTGCAT (site CTCATTCCTAG)	0.112
CTCATTCCTTGGGTTCTAACCTGTTGCAT (site CTCATTCCTAT)	0.523
CTCATTCCTTGGGTTCTAACCTGTTGCTT (site CTCATTCCTAA)	0.211
CTCATTCCTTGGGTTCTAACCTGTTGCTT (site CTCATTCCTAC)	0.482
CTCATTCCTTGGGTTCTAACCTGTTGCTT (site CTCATTCCTAG)	0.0511
CTCATTCCTTGGGTTCTAACCTGTTGCTT (site CTCATTCCTAT)	0.0615
CTCCATCCTTGGGTTCTAACCTGTTGCCT (site CTCCATACTAG)	0
CTCCATCCTTGGGTTCTAACCTGTTGCCT (site CTCCATCCTAG)	0.898
CTCCATCCTTGGGTTCTAACCTGTTGCCT (site CTCCATGCTAG)	0.0326
CTCCATCCTTGGGTTCTAACCTGTTGCCT (site CTCCATTCTAG)	0.0176
CTCCATGCTTGGGTTCTAACCTGTTGCCT (site CTCCATACTAG)	0.325
CTCCATGCTTGGGTTCTAACCTGTTGCCT (site CTCCATCCTAG)	0.312
CTCCATGCTTGGGTTCTAACCTGTTGCCT (site CTCCATGCTAG)	1.19
CTCCATGCTTGGGTTCTAACCTGTTGCCT (site CTCCATTCTAG)	0.0894
CTCCATTCTTGGGTTCTAACCTGTTGCCT (site CTCCATACTAG)	0.0751
CTCCATTCTTGGGTTCTAACCTGTTGCCT (site CTCCATCCTAG)	0.314
CTCCATTCTTGGGTTCTAACCTGTTGCCT (site CTCCATGCTAG)	0.129
CTCCATTCTTGGGTTCTAACCTGTTGCCT (site CTCCATTCTAG)	0.739
